Source: patent publication US11427552B2, “Heterocyclic compounds useful in the treatment of disease” (EPIGEN BIOSCIENCES, INC., priority 2013, dated 2022)

biological target: T1, LPA1R (Homo sapiens, UniProt Q92633); assay: LPA1R Ca2+ flux functional assay (antagonist mode, FLIPR); format: cell-based; conditions: inhibition of LPA-stimulated Ca2+ flux, LPA at EC80, LPA1R expressing cells (Millipore); read-out: LPA1 R Antagonist Activity
T1 construct: host or cells: LPA1R expressing cells (Millipore, GPCR Profiler)
T1 sequence (Q92633 whole entry): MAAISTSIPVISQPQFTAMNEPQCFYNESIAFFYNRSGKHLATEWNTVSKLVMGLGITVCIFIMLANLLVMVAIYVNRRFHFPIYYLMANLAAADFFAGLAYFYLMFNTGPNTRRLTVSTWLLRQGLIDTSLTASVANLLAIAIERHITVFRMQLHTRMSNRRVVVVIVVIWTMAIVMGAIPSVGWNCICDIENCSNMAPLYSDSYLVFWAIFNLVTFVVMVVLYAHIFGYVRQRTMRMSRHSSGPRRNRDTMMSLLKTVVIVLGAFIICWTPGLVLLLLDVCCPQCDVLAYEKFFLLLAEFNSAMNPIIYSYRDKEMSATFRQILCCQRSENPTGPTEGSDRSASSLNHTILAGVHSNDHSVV
Protocol: Inhibition of LPA-stimulated Ca^2+ flux was used to assess compound potency using FLIPR technology in a 96 well plate format. The assay buffer used was a modified Hanks Balanced Salt Solution (HBSS) where HBSS was supplemented to contain 20 mM HEPES and 2.5 mM Probenecid at pH7.4 (Millipore, GPCR Profiler®). LPA1R expressing cells (Millipore) were plated and prepared 24 hours prior to assay of test articles. Ca^2+ ion flux was assessed from fluorescence of a Fluo-based No Wash Ca^2+ dye. Antagonist data are generated from plates with LPA concentrations sufficient to generate 80% efficacy [EC80]. Percentage inhibition was calculated from a reduction of efficacy according to concentration of compounds of Formula I-VI. For dose responses the inhibition data was used to calculate compound IC50. The agonist assay was conducted on a FLIPR^TETRA instrument where the test compound(s), vehicle controls, and reference agonist were added to the assay plate after a fluorescence baseline was established. The agonist assay was a total of 180 seconds and was used to assess each compound's ability to activate each GPCR assayed. Upon completion of the agonist assay, the assay plate was removed from the FLIPR^TETRA and incubated at 25° C. for seven (7) minutes. After the incubation period, the assay plate was placed back in the FLIPR^TETRA and the antagonist assay was initiated. Using EC80 potency values determined during the agonist assay, all pre-incubated sample compound wells were challenged with EC80 concentration of reference agonist after establishment of a fluorescence baseline. The antagonist assay was conducted using the same assay plate that was used for the agonist assay. The antagonist assay was conducted on a FLIPR^TETRA instrument where 9 vehicle controls and EC80 concentration of reference agonist were added to appropriate wells. The antagonist assay was a total of 180 seconds and was used to assess each compound's ability to inhibit each GPCR assayed. All assay plate data were subjected to appropriate baseline corrections. After baseline corrections were applied, maximum fluorescence values were exported and data processed to calculate percentage activation (relative to Emax reference agonist and vehicle control values), percentage inhibition (relative to EC80 and vehicle control values), and additional statistical values (i.e. Z′, percentage variation between replicate data values) to assess the quality of each plate. Where assay plate data were rejected, additional experiments were conducted. All dose response curves were generated using GraphPad Prism. The curves were fit by utilizing “Sigmoidal Dose Response (Variable Slope)” equation where the bottom parameter was fixed to “0.” Where appropriate, the top parameter was fixed to “100” to better predict potency values when a full curve was not generated by the concentrations assayed.

Molecule	IC50
Cc1nn(C)c(-c2ccc(C(=O)N[C@H](Cc3ccccc3)C(=O)O)cc2)c1NC(=O)O[C@H](C)c1ccccc1 [Example 7, (R)-2-[[4-[2,5-dimethyl-4-((R)-1-phenylethoxycarbonylamino)pyrazol-3-yl]benzoyl]amino]-3-phenyl-propanoic Acid]	> 50 µM
Cc1c(NC(=O)O[C@H](C)c2ccccc2)c(-c2ccc(C(=O)N[C@H](Cc3ccc(Cl)cc3)C(=O)O)cc2)nn1C [Example 14, (R)-3-(4-chlorophenyl)-2-[[4-[1,5-dimethyl-4-((R)-1-phenylethoxycarbonyl-amino)pyrazol-3-yl]benzoyl]amino]propanoic Acid]	> 50 µM
Cc1nn(C)c(-c2ccc(C(=O)N[C@H](Cc3ccc(Br)cc3)C(=O)O)cc2)c1NC(=O)O[C@H](C)c1ccccc1 [Example 11, (R)-3-(4-bromophenyl)-2-[[4-[2,5-dimethyl-4-((R)-1-phenylethoxycarbonyl-amino)pyrazol-3-yl]benzoyl]amino]propanoic Acid]	> 50 µM
Cc1noc(-c2ccc(C(=O)NC3(C(=O)O)Cc4ccccc4C3)cc2)c1NC(=O)OC(C)c1ccccc1Cl (stereo not shown) [Example 2, 2-(4-{4-[1-(2-Chloro-phenyl)-ethoxycarbonylamino]-3-methyl-isoxazol-5-yl}-benzoylamino)-indan-2-carboxylic Acid]	1 to 50 µM
Cc1c(NC(=O)O[C@H](C)c2ccccc2)c(-c2ccc(-c3ccc(C4(C(=O)O)CC4)cc3)cc2)nn1C [Example 47, (R)-1-[4-[4-[1,5-dimethyl-4-(1-phenylethoxycarbonylamino)pyrazol-3-yl]phenyl]phenyl]cyclopropane Carboxylic Acid]	0.3 to 1 µM
Cc1nn(C)c(-c2ccc(C(=O)N[C@H](Cc3ccc(Cl)cc3)C(=O)O)cc2)c1NC(=O)O[C@H](C)c1ccccc1 [Example 13, (R)-3-(4-chlorophenyl)-2-[[4-[2,5-dimethyl-4-((R)-1-phenylethoxycarbonyl-amino)pyrazol-3-yl]benzoyl]amino]propanoic Acid]	> 50 µM
Cc1noc(-c2ccc(C(=O)N[C@H](Cc3ccccc3Cl)C(=O)O)cc2)c1NC(=O)O[C@H](C)c1ccccc1Cl [Example 24, (R)-3-(2-Chloro-phenyl)-2-(4-{4-[(R)-1-(2-chloro-phenyl)-ethoxycarbonylamino]-3-methyl-isoxazol-5-yl}-benzoylamino)-propionic Acid]	< 0.3 µM
Cc1noc(-c2ccc(C(=O)NC(Cc3ccccc3)C(=O)O)cc2)c1NC(=O)OC(C)c1ccccc1Cl [Example 4, 2-(R)-(4-{4-[(R,S)-1-(2-Chloro-phenyl)-ethoxycarbonylamino]-3-methyl-isoxazol-5-yl}-benzoylamino) Phenyl Propanoic Acid]	0.3 to 1 µM
Cc1noc(-c2ccc(CNC(Cc3ccccc3F)C(=O)O)cc2)c1NC(=O)OC(C)c1ccccc1Cl [Example 38, (R)-2-(4-{4-[(R)_1-(2-Chloro-phenyl)-ethoxycarbonylamino]-3-methyl-isoxazol-5-yl}-benzylamino)-3-(2-fluoro-phenyl)-propionic Acid]	< 0.3 µM
(R)-3-(4-bromophenyl)-2-[[4-[1,5-dimethyl-4-((R)-1-phenylethoxycarbonyl-amino)pyrazol-3-yl]benzoyl]amino]propanoic acid [Example 12]	> 50 µM
Cc1noc(-c2ccc(C(=O)N[C@H](C(=O)O)c3ccccc3)cc2)c1NC(=O)OC(C)c1ccccc1Cl (mixture of isomers) [Example 3, 2-(S)-(4-{4-[(R,S)-1-(2-Chloro-phenyl)-ethoxycarbonylamino]-3-methyl-isoxazol-5-yl}-benzoylamino) Phenyl Acetic Acid]	> 50 µM
Cc1cc(C2(C(=O)O)CC2)ccc1-c1ccc(-n2ncc(F)c2NC(=O)O[C@H](C)c2ccccc2Cl)cc1 [Example 52, (R)-1-(4′-{5-[1-(2-Chloro-phenyl)-ethoxycarbonylamino]-4-fluoro-pyrazol-1-yl}-2-methyl-biphenyl-4-yl)-cyclopropanecarboxylic Acid]	< 0.3 µM

Now from value to molecule:

IC50	Molecule
< 0.3 µM	Cc1noc(-c2ccc(C(=O)N[C@H](Cc3ccc(Br)cc3)C(=O)O)cc2)c1NC(=O)O[C@H](C)c1ccccc1Cl [Example 25, (R)-3-(4-Bromo-phenyl)-2-(4-{4-[(R)-1-(2-chloro-phenyl)-ethoxycarbonylamino]-3-methyl-isoxazol-5-yl}-benzoylamino)-propionic Acid]
< 0.3 µM	Cc1noc(-c2ccc(C(=O)N[C@H](Cc3ccc(F)cc3)C(=O)O)cc2)c1NC(=O)O[C@H](C)c1ccccc1Cl [Example 21, (R)-2-(4-{4-[(R)-1-(2-Chloro-phenyl)-ethoxycarbonylamino]-3-methyl-isoxazol-5-yl}-benzoylamino)-3-(4-fluoro-phenyl)-propionic Acid]
< 0.3 µM	Cc1noc(-c2ccc(CN[C@H](Cc3ccc(Cl)cc3)C(=O)O)cc2)c1NC(=O)O[C@H](C)c1ccccc1 [Example 36, (R)-3-(4-Chloro-phenyl)-2-{4-[3-methyl-4-((R)-1-phenyl-ethoxycarbonylamino)-isoxazol-5-yl]-benzylamino}-propionic Acid]
< 0.3 µM	C[C@@H](OC(=O)Nc1c(F)cnn1-c1ccc(-c2ccc(C3(C(=O)O)CC3)cc2)cc1)c1ccccc1Cl [Example 53, (R)-1-(4′-{5-[1-(2-Chloro-phenyl)-ethoxycarbonylamino]-4-fluoro-pyrazol-1-yl}-biphenyl-4-yl)-cyclopropanecarboxylic Acid]
< 0.3 µM	C[C@@H](OC(=O)Nc1c(F)cnn1-c1ccc(-c2ccc(C3(C(=O)O)CC3)c(F)c2)cc1)c1ccccc1Cl [Example 49, (R)-1-(4′-{5-[1-(2-Chloro-phenyl)-ethoxycarbonylamino]-4-fluoro-pyrazol-1-yl}-3-fluoro-biphenyl-4-yl)-cyclopropanecarboxylic Acid]
< 0.3 µM	Cc1noc(-c2ccc(CN[C@H](CC3CC3)C(=O)O)cc2)c1NC(=O)O[C@H](C)c1ccccc1Cl [Example 41, (R)-2-(4-{4-[(R)-1-(2-Chloro-phenyl)-ethoxycarbonylamino]-3-methyl-isoxazol-5-yl}-benzylamino)-3-cyclopropyl-propionic Acid]
< 0.3 µM	C[C@@H](OC(=O)Nc1c(F)cnn1-c1ccc(-c2ccc(C3(C(=O)O)CC3)cc2F)cc1)c1ccccc1Cl [Example 50, (R)-1-(4′-{5-[1-(2-Chloro-phenyl)-ethoxycarbonylamino]-4-fluoro-pyrazol-1-yl}-2-fluoro-biphenyl-4-yl)-cyclopropanecarboxylic Acid]
< 0.3 µM	(R)-2-(4-{4-[(R)-1-(2-Chloro-phenyl)-ethoxycarbonylamino]-3-methyl-isoxazol-5-yl}-benzoylamino)-3-phenyl-propionic Acid [Example 20]
< 0.3 µM	Cc1noc(-c2ccc(CN[C@H](Cc3ccccc3Cl)C(=O)O)cc2)c1NC(=O)O[C@H](C)c1ccccc1Cl [Example 40, (R)-3-(2-Chloro-phenyl)-2-(4-{4-[(R)-1-(2-chloro-phenyl)-ethoxycarbonylamino]-3-methyl-isoxazol-5-yl}-benzylamino)-propionic Acid]
< 0.3 µM	Cc1noc(-c2ccc(C(=O)N[C@H](Cc3ccc(F)c(F)c3)C(=O)O)cc2)c1NC(=O)O[C@H](C)c1ccccc1Cl [Example 23, (R)-2-(4-{4-[(R)-1-(2-Chloro-phenyl)-ethoxycarbonylamino]-3-methyl-isoxazol-5-yl}-benzoylamino)-3-(3,4-difluoro-phenyl)-propionic Acid]
< 0.3 µM	Cc1noc(-c2ccc(CN[C@H](Cc3ccccc3)C(=O)O)cc2)c1NC(=O)O[C@H](C)c1ccccc1 [Example 31, (R)-2-{4-[3-Methyl-4-((R)-1-phenyl-ethoxycarbonylamino)-isoxazol-5-yl]-benzylamino}-3-phenyl-propionic Acid]
< 0.3 µM	Cc1noc(-c2ccc(C(=O)N[C@H](Cc3ccccc3F)C(=O)O)cc2)c1NC(=O)O[C@H](C)c1ccccc1Cl [Example 26, (R)-2-(4-{4-[(R)-1-(2-Chloro-phenyl)-ethoxycarbonylamino]-3-methyl-isoxazol-5-yl}-benzoylamino)-3-(2-fluoro-phenyl)-propionic Acid]
< 0.3 µM	Cc1noc(-c2ccc(CN[C@H](Cc3ccccc3)C(=O)O)cc2)c1NC(=O)O[C@H](C)c1ccccc1Cl [Example 37, (R)-2-(4-{4-[(R)-1-(2-Chloro-phenyl)-ethoxycarbonylamino]-3-methyl-isoxazol-5-yl}-benzylamino)-3-phenyl-propionic Acid]
